Tests used:
[1] = test system: A549-ACE2 infected with SARS-CoV-2; assay: morphology score (similarity to uninfected cells); higher = more like uninfected cells; settings: 24 h
[2] = test system: Vero E6; assay: cell viability relative to DMSO; higher = less toxic; settings: 72 h
[3] = test system: HepG2; assay: as above; settings: 72 h
[4] = test system: U2OS; assay: as above; settings: 72 h
[5] = test system: Caco-2; assay: as above; settings: 72 h
[6] = test system: Calu-3; assay: as above; settings: 72 h
[7] = test system: A549-ACE2; assay: drug-induced phospholipidosis relative to tamoxifen; higher = more phospholipidosis
[8] = test system: A549-ACE2 infected with SARS-CoV-2; assay: SARS-CoV-2 infection rate relative to DMSO; higher = more infection; settings: 24 h
[9] = test system: Vero E6; assay: relative viability EC50 (midpoint between 100% and the lowest measured viability); higher = less toxic; settings: 72 h
[10] = test system: HepG2; assay: as above; settings: 72 h
[11] = test system: U2OS; assay: as above; settings: 72 h
[12] = test system: Calu-3; assay: as above; settings: 72 h
[13] = test system: Vero E6; assay: drug sensitivity score (DSS) for viability; higher = more toxic; extreme values may be limits of the assay; settings: 72 h
[14] = test system: HepG2; assay: as above; settings: 72 h
[15] = test system: U2OS; assay: as above; settings: 72 h
[16] = test system: Caco-2; assay: as above; settings: 72 h
[17] = test system: Calu-3; assay: as above; settings: 72 h
[18] = test system: A549-ACE2 infected with SARS-CoV-2; assay: cell count relative to DMSO; higher = less toxic; settings: 24 h
[19] = test system: A549-ACE2; assay: phospholipidosis EC50; higher = less potent phospholipidosis inducer
[20] = test system: Caco-2; assay: relative viability EC50 (midpoint between 100% and the lowest measured viability); higher = less toxic; settings: 72 h

CCC(CC)COC(=O)[C@H](C)N[P@](=O)(OC[C@H]1O[C@@](C#N)(c2ccc3c(N)ncnn23)[C@H](O)[C@@H]1O)Oc1ccccc1 [Remdesivir]
Settings	SARS-CoV-2 infection rate [%]	cell count [%]	cell viability [%]	morphology score
[1], 0.008 µM	–	–	–	0.17
[1], 0.033 µM	–	–	–	0.61
[1], 0.1 µM	–	–	–	0.82
[1], 0.3 µM	–	–	–	0.95
[1], 1 µM	–	–	–	0.96
[1], 3 µM	–	–	–	0.97
[1], 10 µM	–	–	–	0.93
[1], 30 µM	–	–	–	0.93
[2], 1 nM	–	–	97.2	–
[2], 10 nM	–	–	97.6	–
[2], 100 nM	–	–	99.7	–
[2], 1000 nM	–	–	99.3	–
[2], 10000 nM	–	–	109	–
[3], 1 nM	–	–	101	–
[3], 10 nM	–	–	95.5	–
[3], 100 nM	–	–	105	–
[3], 1000 nM	–	–	70.2	–
[3], 10000 nM	–	–	33.7	–
[4], 1 nM	–	–	98	–
[4], 10 nM	–	–	100	–
[4], 100 nM	–	–	101	–
[4], 1000 nM	–	–	96.1	–
[4], 10000 nM	–	–	42.6	–
[5], 1 nM	–	–	103	–
[5], 10 nM	–	–	101	–
[5], 100 nM	–	–	102	–
[5], 1000 nM	–	–	102	–
[5], 10000 nM	–	–	69.3	–
[6], 1 nM	–	–	90.6	–
[6], 10 nM	–	–	103	–
[6], 100 nM	–	–	88.7	–
[6], 1000 nM	–	–	97	–
[6], 10000 nM	–	–	81.1	–
[8], 0.008 µM	95	–	–	–
[8], 0.033 µM	83	–	–	–
[8], 0.1 µM	18	–	–	–
[8], 0.3 µM	11	–	–	–
[8], 1 µM	16	–	–	–
[8], 3 µM	9	–	–	–
[8], 10 µM	2	–	–	–
[8], 30 µM	2	–	–	–
[18], 0.008 µM	–	104	–	–
[18], 0.033 µM	–	114	–	–
[18], 0.1 µM	–	120	–	–
[18], 0.3 µM	–	126	–	–
[18], 1 µM	–	124	–	–
[18], 3 µM	–	116	–	–
[18], 10 µM	–	111	–	–
[18], 30 µM	–	105	–	–

drug-induced phospholipidosis [%], [7]
Settings	0.3 µM	0.833333 µM	3.33333 µM	6.66667 µM	10 µM	30 µM
24 h	1.03	-4.55	5.63	18	30	47.1
48 h	4.23	-7.54	0.11	4.58	10.5	–
72 h	4.52	-8.77	-4.57	–	–	–

Settings	drug sensitivity score	relative viability EC50 [µM]
[9]	–	> 10
[10]	–	1.09
[11]	–	2.62
[12]	–	> 10
[13]	0	–
[14]	7.5	–
[15]	3.7	–
[16]	1.2	–
[17]	0.4	–

C=CCN(C)CCCCCCOc1ccc(C(=O)c2ccc(Br)cc2)c(F)c1 [Ro-48-8071]
Settings	SARS-CoV-2 infection rate [%]	cell count [%]	cell viability [%]	morphology score	phospholipidosis EC50 [µM]
[1], 0.3 µM	–	–	–	-0.04	–
[1], 3 µM	–	–	–	0.67	–
[1], 10 µM	–	–	–	0.73	–
[1], 30 µM	–	–	–	0.1	–
[2], 1 nM	–	–	104	–	–
[2], 10 nM	–	–	100	–	–
[2], 100 nM	–	–	100	–	–
[2], 1000 nM	–	–	94.6	–	–
[2], 10000 nM	–	–	84.5	–	–
[3], 1 nM	–	–	104	–	–
[3], 10 nM	–	–	98.3	–	–
[3], 100 nM	–	–	92.1	–	–
[3], 1000 nM	–	–	93.7	–	–
[3], 10000 nM	–	–	34	–	–
[4], 1 nM	–	–	98.6	–	–
[4], 10 nM	–	–	102	–	–
[4], 100 nM	–	–	93.5	–	–
[4], 1000 nM	–	–	96	–	–
[4], 10000 nM	–	–	79	–	–
[5], 1 nM	–	–	97.5	–	–
[5], 10 nM	–	–	101	–	–
[5], 100 nM	–	–	102	–	–
[5], 1000 nM	–	–	81.7	–	–
[5], 10000 nM	–	–	45.9	–	–
[6], 1 nM	–	–	95.1	–	–
[6], 10 nM	–	–	95.7	–	–
[6], 100 nM	–	–	97.4	–	–
[6], 1000 nM	–	–	99.7	–	–
[6], 10000 nM	–	–	55.3	–	–
[8], 0.3 µM	102	–	–	–	–
[8], 3 µM	59	–	–	–	–
[8], 10 µM	25	–	–	–	–
[8], 30 µM	38	–	–	–	–
[18], 0.3 µM	–	103	–	–	–
[18], 3 µM	–	114	–	–	–
[18], 10 µM	–	117	–	–	–
[18], 30 µM	–	70	–	–	–
[19], 24 h	–	–	–	–	3.35
[19], 48 h	–	–	–	–	4.65
[19], 72 h	–	–	–	–	5.61

drug-induced phospholipidosis [%], [7]
Settings	0.3 µM	0.833333 µM	3.33333 µM	6.66667 µM	10 µM	30 µM
24 h	2.62	7.33	44.1	86.2	90.2	82
48 h	5.45	7.84	36.4	96.4	115	–
72 h	4.46	5.92	27.7	95.3	127	–

Settings	drug sensitivity score	relative viability EC50 [µM]
[9]	–	> 10
[10]	–	2.38
[11]	–	> 10
[13]	0.7	–
[14]	4.6	–
[15]	1.1	–
[16]	5.5	–
[17]	2.3	–
[20]	–	1.31

COc1ccc(C[C@H]2NC[C@H](O)[C@H]2OC(C)=O)cc1 [anisomycin]
Settings	SARS-CoV-2 infection rate, [8] [%]	cell count, [18] [%]	cell viability, [2] [%]	cell viability, [3] [%]	cell viability, [4] [%]	cell viability, [5] [%]	cell viability, [6] [%]	morphology score, [1]
1 nM	–	–	94.1	96.1	103	99.4	103	–
10 nM	–	–	93	98.5	95.6	87	97.9	–
0.1 µM	7	103	–	–	–	–	–	0.85
100 nM	–	–	34.1	39.4	53.4	58.5	67.4	–
0.3 µM	6	85	–	–	–	–	–	0.65
1 µM	18	64	–	–	–	–	–	0.48
1000 nM	–	–	9.8	11.8	5.4	24.8	35.1	–
3 µM	14	34	–	–	–	–	–	0.46
10000 nM	–	–	0.4	3.7	0.5	26.5	29.1	–

[7], 24 h
Settings	drug-induced phospholipidosis [%]
0.3 µM	4.72
0.833333 µM	-0.99

Settings	drug sensitivity score	relative viability EC50 [µM]
[9]	–	0.0614
[10]	–	0.0728
[11]	–	0.11
[12]	–	0.117
[13]	25.9	–
[14]	24.6	–
[15]	22.9	–
[16]	18.9	–
[17]	16.1	–
[20]	–	0.0691
